PubChem BioAssay (NCI)
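96-well plates; 48 h exposure; 5 concentrations. Endpoints by linear interpolation between flanking doses. Not reached: highest tested concentration assigned. At the TGI there is no net growth.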

Tests used:
Assay in all cases: growth of human tumour cells (NCI), 48 h
[1] = system: DU-145 prostate
[2] = system: SK-MEL-28 melanoma
[3] = system: A498 renal
[4] = system: NCI-H23 lung
[5] = system: HCT-15 colon
[6] = system: 786-0 renal
[7] = system: HOP-92 NSCLC
[8] = system: SK-MEL-2 melanoma
[9] = system: HT29 colon
[10] = system: NCI-H226 lung
[11] = system: PC-3 prostate
[12] = system: HCT-116 colon
[13] = system: SN12C renal
[14] = system: MDA-N
[15] = system: HL-60(TB) leukemia

| SMILES | TGI [1] [µM] | TGI [2] [µM] | TGI [3] [µM] | TGI [4] [µM] | TGI [5] [µM] | TGI [6] [µM] | TGI [7] [µM] | TGI [8] [µM] | TGI [9] [µM] | TGI [10] [µM] | TGI [11] [µM] | TGI [12] [µM] | TGI [13] [µM] | TGI [14] [µM] | TGI [15] [µM] |
| --- | --- | --- | --- | --- | --- | --- | --- | --- | --- | --- | --- | --- | --- | --- | --- |
| Cn1nc(S(N)(=O)=O)s/c1=N/S(=O)(=O)c1ccc(N)cc1 | > 100 | > 100 | > 100 | > 100 | > 100 | > 100 | > 100 | > 100 | > 100 | > 100 | > 100 | – | – | – | – |
| CCOC(=O)CNC(=O)CNC(=O)CNC(=O)CNNc1c(OCc2ccccc2)c(=O)c1=O | > 100 | > 100 | > 100 | > 100 | > 100 | > 100 | – | > 100 | > 100 | > 100 | > 100 | > 100 | > 100 | > 100 | – |
| Brc1ccc(N=Nc2ccc3ccccc3n2)cc1 | > 100 | – | – | > 100 | > 100 | 27.1 | > 100 | > 100 | > 100 | 66.9 | > 100 | 30.1 | > 100 | > 100 | > 100 |
| O=C1/C(=C/c2ccc(OC(=O)c3ccc(Cl)cc3)cc2)CCC/C1=C\c1ccc(OC(=O)c2ccc(Cl)cc2)cc1 | > 100 | > 100 | – | > 100 | > 100 | > 100 | > 100 | > 100 | > 100 | – | > 100 | > 100 | > 100 | > 100 | > 100 |
| Cc1cc(C)nc(NS(=O)(=O)c2ccc(Nc3nnc(/C=C/c4c(O)ccc5ccccc45)c(=O)n3N)cc2)n1 | > 100 | – | – | 57.7 | 30.9 | 62.9 | > 100 | – | > 100 | – | – | 42 | 73.2 | 81.6 | 66.8 |
| O=C(Nc1ccccc1[N+](=O)[O-])C(=O)C(C(=O)c1ccccc1-c1ccccc1)C1OC(=O)c2ccccc21 (centres undefined) | – | 37.7 | 37.8 | 33.6 | 30 | 28.6 | – | 65.2 | 59.2 | 21.3 | – | 38.4 | 30.3 | – | 47.6 |
| CC1(C)CC2C(/C1=N/O)C1(C)CCCC2(C)C1O (centres undefined) | > 100 | > 100 | – | > 100 | > 100 | > 100 | > 100 | > 100 | > 100 | > 100 | > 100 | > 100 | > 100 | > 100 | > 100 |
| N#Cc1nc(-c2ccc(-c3nc(C#N)c(N)o3)cc2)oc1N | > 10 | > 10 | – | > 10 | > 10 | > 10 | > 10 | – | > 10 | > 10 | > 10 | > 10 | > 10 | > 10 | > 10 |
| COc1ccc2c(c1)C1c3ccccc3CCN1CCC2 (centres undefined) | > 100 | > 100 | > 100 | > 100 | > 100 | > 100 | > 100 | 70.8 | > 100 | > 100 | > 100 | > 100 | > 100 | – | – |
| Cc1ccc(S(=O)(=O)OI(O)CC(F)(F)F)cc1 | > 100 | > 100 | > 100 | > 100 | > 100 | > 100 | > 100 | > 100 | > 100 | > 100 | > 100 | > 100 | > 100 | – | > 100 |
| C/C(=C(/C)c1cc[n+](C)cc1)c1cc[n+](C)cc1 | – | > 75 | > 75 | > 75 | > 75 | > 75 | > 75 | > 75 | > 75 | – | – | > 75 | > 75 | – | > 75 |
| CC(=O)c1sc2n(C)c(=O)c3ccccc3[n+]2c1C | > 100 | > 100 | – | > 100 | > 100 | > 100 | > 100 | > 100 | > 100 | > 100 | > 100 | > 100 | > 100 | > 100 | > 100 |
| Nc1ncnc2c1ncn2[C@@H]1C[C@H](NO)[C@@H](O)[C@H]1O | > 100 | > 100 | > 100 | > 100 | > 100 | > 100 | > 100 | > 100 | – | > 100 | > 100 | > 100 | > 100 | > 100 | – |
| C=CCN(N=O)C(=O)N(CCCCC(NC(C)=O)C(=O)NCc1ccccc1)Cc1ccccc1 (centres undefined) | – | > 100 | > 100 | > 100 | > 100 | > 100 | 57.3 | > 100 | 36.8 | 60.7 | – | – | > 100 | – | 43.5 |
| Cc1ccc(S(=O)(=O)NC(=O)NCC(N)=O)cc1 | > 100 | > 100 | – | > 100 | > 100 | > 100 | > 100 | > 100 | > 100 | – | > 100 | > 100 | > 100 | > 100 | > 100 |
| O=C(NN1C(=O)C(Cl)C1c1cccc(Cl)c1)c1ccccc1O (centres undefined) | – | > 100 | > 100 | > 100 | > 100 | > 100 | – | > 100 | > 100 | > 100 | – | > 100 | > 100 | – | > 100 |
| COc1ccc2cc(/C=N\NC(=O)Nc3ccc([N+](=O)[O-])cc3)ccc2c1 | 14 | 23.1 | – | 16.6 | 25 | 16.8 | 32.4 | 20.5 | 16.1 | – | 18.8 | 16.3 | 18 | 18.5 | 30.7 |
| CCN(CC)c1ccc2cc(-c3csc(C)n3)c(=O)oc2c1 | > 100 | > 100 | – | – | > 100 | > 100 | 92.7 | > 100 | > 100 | > 100 | > 100 | > 100 | > 100 | > 100 | > 100 |
